Test [1] concerns wild-type M. tuberculosis. Details: species or system Balb/C mice. The settings on record: mouse, in vivo.
Test [2] has as its system wild-type M. tuberculosis. Nature of the test: microbe, parasite or virus in culture. The test is classed as cell-based. Particulars: Mycobacterium tuberculosis.

Molecules are shown by their SMILES. Values after ≈ are worked out from the molar mass of the structure shown.

Regarding `NNC(=O)c1ccncc1` [isoniazid], the “bacterial burden (lung CFU) under treatment” value in test [1] was “similarly effective”. Moreover, the MIC in test [2] worked out at 0.03 µg/mL (≈ 0.219 µM).
Take `N[C@@H]1CON=C1O` [D-cycloserine]: the MIC in test [2] came out at 5 µg/mL (≈ 49 µM).

(Values after patent US9273341B2, “Methods for treatment of bacterial infections” (THE JOHNS HOPKINS UNVIERSITY, priority 2010, dated 2016).)
